For one assay, the target named is κ opioid receptor (Cavia porcellus, UniProt P41144). Nature of the assay: Opiate receptor binding (κ). Particulars: procedure of Maguire et al. How it is done: (§1) The opioid (μ, κ, δ) receptor-binding capabilities of compounds described herein were determined according to the procedures outlined by Wang et al. (FEBS Letters 1994, 338, 217), Maguire et al. (Eur. J. Pharmacol. 1992, 213, 219), and Simonin et al. (Mol. Pharmacol. 1994, 46, 1015).

The next assay has as its target δ opioid receptor (Homo sapiens, UniProt P41143). Description: Opiate receptor binding (δ). Particulars: procedure of Simonin et al. On the procedure: as §1
The next assay concerns the target μ opioid receptor (Homo sapiens, UniProt P35372). Description: Opiate receptor binding (μ). The note with it: procedure of Wang et al.
Source text: Another assay useful in the present invention concerns determining the ability of a ligand to bind to a biological receptor utilizing a technique well known in the art referred to as a radioligand binding assay. This assay accurately determines the specific binding of a radioligand to a targeted receptor through the delineation of its total and nonspecific binding components. Total binding is defined as the amount of radioligand that remains following the rapid separation of the radioligand bound in a receptor preparation (cell homogenates or recombinate receptors) from that which is unbound. The nonspecific binding component is defined as the amount of radioligand that remains following separation of the reaction mixture consisting of receptor, radioligand and an excess of unlabeled ligand. Under this condition, the only radioligand that remains represents that which is bound to components other that receptor. The specific radioligand bound is determined by subtracting the nonspecific from total radioactivity bound. For a specific example of radioligand binding assay for μ-opioid receptor, see Wang, J. B. et al. FEBS Letters 1994, 338, 217.
as §1

These results are taken from patent US7361666B2, “Heterocyclic analgesic compounds and methods of use thereof” (Sepracor, Inc., priority 1999, dated 2008).

Chain of δ opioid receptor (P41143 whole entry): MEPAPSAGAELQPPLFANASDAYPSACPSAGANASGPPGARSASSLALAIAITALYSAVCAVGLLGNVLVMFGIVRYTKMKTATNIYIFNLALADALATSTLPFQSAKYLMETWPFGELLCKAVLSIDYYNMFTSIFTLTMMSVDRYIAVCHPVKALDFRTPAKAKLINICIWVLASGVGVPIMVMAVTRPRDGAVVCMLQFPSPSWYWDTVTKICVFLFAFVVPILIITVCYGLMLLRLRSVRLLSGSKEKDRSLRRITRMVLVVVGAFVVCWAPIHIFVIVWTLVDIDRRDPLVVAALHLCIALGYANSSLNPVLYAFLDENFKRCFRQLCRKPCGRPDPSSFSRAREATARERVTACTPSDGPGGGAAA
Chain of κ opioid receptor (P41144 whole entry): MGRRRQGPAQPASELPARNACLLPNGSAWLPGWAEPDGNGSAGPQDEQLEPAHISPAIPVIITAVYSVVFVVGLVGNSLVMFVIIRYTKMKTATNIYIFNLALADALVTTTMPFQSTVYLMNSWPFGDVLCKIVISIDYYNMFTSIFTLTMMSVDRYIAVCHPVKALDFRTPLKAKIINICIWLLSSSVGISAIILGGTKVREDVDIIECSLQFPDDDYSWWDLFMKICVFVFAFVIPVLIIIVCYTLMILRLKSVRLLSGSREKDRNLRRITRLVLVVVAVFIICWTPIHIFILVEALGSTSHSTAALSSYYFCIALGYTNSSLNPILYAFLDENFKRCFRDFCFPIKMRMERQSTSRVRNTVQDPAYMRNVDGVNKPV
Chain of μ opioid receptor (P35372 whole entry): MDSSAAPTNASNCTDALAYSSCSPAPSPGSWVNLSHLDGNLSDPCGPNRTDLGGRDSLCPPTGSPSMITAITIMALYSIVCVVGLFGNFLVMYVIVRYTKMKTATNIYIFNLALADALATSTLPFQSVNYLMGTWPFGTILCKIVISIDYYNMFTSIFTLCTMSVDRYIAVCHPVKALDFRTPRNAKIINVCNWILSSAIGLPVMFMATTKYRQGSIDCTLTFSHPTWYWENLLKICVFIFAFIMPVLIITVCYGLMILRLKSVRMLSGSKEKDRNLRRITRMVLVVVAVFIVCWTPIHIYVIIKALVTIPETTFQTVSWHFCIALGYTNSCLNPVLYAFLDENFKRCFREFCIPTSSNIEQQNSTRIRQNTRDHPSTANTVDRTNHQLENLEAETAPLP

As to `CCC(=O)N(CC1CCCN(CCc2ccccc2)C1)C(C)c1ccccc1` (single isomer, unassigned) [Compound 221, N-(1-Phenethyl-piperidin-3-ylmethyl)-N-(1-phenyl-ethyl)-propionamide], the results for the IC50 on κ opioid receptor, on δ opioid receptor and on μ opioid receptor were < 1 µM, > 1 µM and < 1 µM, respectively.
For the molecule `CCC(=O)N(CC1CCCN(CCc2ccccc2)C1)C(C)c1ccccc1` (single isomer, unassigned) [Compound 225, N-(1-Phenethyl-piperidin-3-ylmethyl)-N-(1-phenyl-ethyl)-propionamide], the IC50 (usually the concentration needed to halve the response being measured) at κ opioid receptor is > 1 µM; at δ opioid receptor, > 1 µM; on μ opioid receptor, < 1 µM.
For `CCC(=O)N(CC1CCCN(CCc2ccccc2)C1)C(C)c1ccccc1` (single isomer, unassigned) [Compound 220, N-(1-Phenethyl-piperidin-3-ylmethyl)-N-(1-phenyl-ethyl)-propionamide], the 50% inhibitory concentration (IC50) on κ opioid receptor is < 1 µM; at δ opioid receptor it was > 1 µM; on μ opioid receptor, < 1 µM.
On to `CCC(=O)N(CC1CCCN(CCc2ccccc2)C1)C(C)c1ccccc1` (single isomer, unassigned) [Compound 223, N-(1-Phenethyl-piperidin-3-ylmethyl)-N-(1-phenyl-ethyl)-propionamide], for which the IC50 was > 1 µM at κ opioid receptor, > 1 µM at δ opioid receptor and < 0.1 µM on μ opioid receptor.
As for `CCC(=O)N(CC1CCCN(CCc2ccccc2)C1)C(C)c1ccccc1` (single isomer, unassigned) [Compound 224, N-(1-Phenethyl-piperidin-3-ylmethyl)-N-(1-phenyl-ethyl)-propionamide], the half-maximal inhibitory concentration (IC50) on κ opioid receptor is > 1 µM; on δ opioid receptor, > 1 µM; at μ opioid receptor it was < 1 µM.
With `CCC(=O)N(CC1CCCN(CCc2ccccc2)C1)C(C)c1ccccc1` (single isomer, unassigned) [Compound 222, N-(1-Phenethyl-piperidin-3-ylmethyl)-N-(1-phenyl-ethyl)-propionamide], the IC50 on κ opioid receptor, on δ opioid receptor and on μ opioid receptor was > 1 µM each time.
